In US20260167619A2, “INDOLINE COMPOUNDS AND DERIVATIVES AS EGFR INHIBITORS” (BeOne Medicines I GmbH, priority 2020, published 2026):

Columns and labels:
[1] = molecular target: T1, EGFR (aa668-1210, Invitrogen) (Homo sapiens, UniProt P00533); test: Biochemical EGFR inhibition assay (TR-FRET), wild-type EGFR; details: ATP at Km, 15 min pre-incubation, 60 min reaction; read-out: WT (Km ATP) IC50
T1 construct: EGFR (aa668-1210, Invitrogen); purchased Invitrogen
Protocol: (§1) Compounds were tested for inhibition of kinase activity against EGFR (aa668-1210, Invitrogen), EGFR(L858R_T790M_C797S) (aa695-end, Invitrogen) and EGFR(Dell9_T790M_C797S) (aa 669-1210, in house) in assays based on time-resolved fluorescence-resonance energy transfer (TR-FRET) methodology. Recombinant EGFR, EGFR(L858R_T790M_C797S) or EGFR(Dell9_T790M_C797S) was pre-incubated with the compounds at room temperature for 15 minutes in an assay buffer containing 50 mM HEPES pH7.5, 10 mM MgCl2, 2 mM DTT, 1 mM EGTA, 0.1% BSA, 0.01% Tween-20. The reactions were initiated by the addition of ATP (at the concentration of ATP Km) and substrate Biotin-Poly GT. After reaction at room temperature for 60 minutes, stop/detection solution was added. The stop/detection solution contained Eu^3+ cryptate-conjugated mouse monoclonal antibody (PT66) anti-phosphotyrosine and XL665-conjugated streptavidin in buffer containing 50 mM HEPES pH7.0, 800 mM KF, 20 mM EDTA, and 0.1% BSA. Plates were sealed and incubated at room temperature for 1 hour, and the TR-FRET signals (ratio of fluorescence emission at 665 nm over emission at 620 nm with excitation at 337 nm wavelength) were recorded on a PHERAstar FS plate reader (BMG Labtech). The residual enzyme activity in presence of increasing concentrations of compounds was calculated based on the ratio of fluorescence at 665 nm to that at 620 nm. The IC50 for each compound was derived from fitting the data to the four-parameter logistic equation by Dotmatics or Graphpad Prism software.
(§2) These biochemical EGFR enzyme form compound dose-response assays quantify the kinase activity via phosphorylation of a tagged poly-GT substrate. The results of the assay are provided as IC50 values.

[2] = molecular target: T2, EGFR(L858R_T790M_C797S) (aa695-end, Invitrogen) (Homo sapiens, UniProt P00533, C797S/L858R/T790M); test: Biochemical EGFR inhibition assay (TR-FRET), L858R/T790M/C797S mutant; details: ATP at Km, 15 min pre-incubation, 60 min reaction; read-out: LR_TM_CS (Km ATP) IC50
T2 construct: purchased Invitrogen
Protocol: as §1, §2

[3] = molecular target: EGFR(Dell9_T790M_C797S) (aa 669-1210, in house) (Homo sapiens, UniProt P00533, T790M/C797S, form not given); test: Biochemical EGFR inhibition assay (TR-FRET), Del19/T790M/C797S mutant; details: ATP at Km, 15 min pre-incubation, 60 min reaction; read-out: Del_TM_CS (Km ATP) IC50
Protocol: as §1, §2

T1 sequence (P00533 668-1210): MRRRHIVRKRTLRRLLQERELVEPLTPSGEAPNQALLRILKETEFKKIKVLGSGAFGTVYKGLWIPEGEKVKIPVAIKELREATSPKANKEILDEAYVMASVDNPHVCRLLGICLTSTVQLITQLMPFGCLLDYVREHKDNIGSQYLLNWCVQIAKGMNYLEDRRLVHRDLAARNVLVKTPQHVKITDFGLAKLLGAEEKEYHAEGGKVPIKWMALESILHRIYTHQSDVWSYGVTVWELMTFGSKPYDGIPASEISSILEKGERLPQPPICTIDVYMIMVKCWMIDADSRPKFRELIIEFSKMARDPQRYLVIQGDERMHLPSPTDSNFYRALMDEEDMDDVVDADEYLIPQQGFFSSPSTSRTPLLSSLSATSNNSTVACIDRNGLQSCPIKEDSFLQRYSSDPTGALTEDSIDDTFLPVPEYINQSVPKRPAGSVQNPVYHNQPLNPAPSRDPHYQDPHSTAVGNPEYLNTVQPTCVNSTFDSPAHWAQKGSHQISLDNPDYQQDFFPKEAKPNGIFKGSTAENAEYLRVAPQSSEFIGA
Chain of EGFR(Dell9_T790M_C797S) (aa 669-1210, in house) (P00533 with tags, fused parts or gaps DEL746-750/T790M/C797S, form open): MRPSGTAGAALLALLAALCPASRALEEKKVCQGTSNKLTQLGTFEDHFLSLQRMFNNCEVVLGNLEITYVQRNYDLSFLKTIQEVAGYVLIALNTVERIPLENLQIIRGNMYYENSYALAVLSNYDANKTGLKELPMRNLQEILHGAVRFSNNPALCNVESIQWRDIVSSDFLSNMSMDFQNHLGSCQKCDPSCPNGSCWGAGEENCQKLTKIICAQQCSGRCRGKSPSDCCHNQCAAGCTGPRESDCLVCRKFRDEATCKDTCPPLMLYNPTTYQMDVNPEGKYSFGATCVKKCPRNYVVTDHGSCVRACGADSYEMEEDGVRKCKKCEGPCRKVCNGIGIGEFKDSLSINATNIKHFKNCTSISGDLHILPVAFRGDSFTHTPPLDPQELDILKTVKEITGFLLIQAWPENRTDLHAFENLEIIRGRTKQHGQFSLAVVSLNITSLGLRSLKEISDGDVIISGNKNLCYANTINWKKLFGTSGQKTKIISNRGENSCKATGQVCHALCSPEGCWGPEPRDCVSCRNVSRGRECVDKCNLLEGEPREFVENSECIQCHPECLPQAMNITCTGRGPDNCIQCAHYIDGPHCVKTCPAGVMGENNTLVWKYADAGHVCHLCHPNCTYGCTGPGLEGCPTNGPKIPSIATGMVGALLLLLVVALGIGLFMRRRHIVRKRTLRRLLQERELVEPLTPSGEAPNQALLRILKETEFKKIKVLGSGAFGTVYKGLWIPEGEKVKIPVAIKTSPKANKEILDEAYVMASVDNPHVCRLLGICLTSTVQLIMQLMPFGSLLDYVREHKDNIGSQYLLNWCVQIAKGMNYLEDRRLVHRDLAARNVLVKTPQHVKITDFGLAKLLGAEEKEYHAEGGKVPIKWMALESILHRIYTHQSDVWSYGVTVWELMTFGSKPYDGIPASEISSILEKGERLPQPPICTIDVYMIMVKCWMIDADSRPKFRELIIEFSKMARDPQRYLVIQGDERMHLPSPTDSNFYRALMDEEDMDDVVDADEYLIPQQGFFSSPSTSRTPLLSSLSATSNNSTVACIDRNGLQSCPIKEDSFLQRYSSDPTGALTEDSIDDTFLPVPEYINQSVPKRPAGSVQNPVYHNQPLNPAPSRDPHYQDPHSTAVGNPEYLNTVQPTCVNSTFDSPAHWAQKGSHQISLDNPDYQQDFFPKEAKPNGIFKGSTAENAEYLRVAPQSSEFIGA
T2 sequence (P00533 695-1210 T790M/C797S/L858R): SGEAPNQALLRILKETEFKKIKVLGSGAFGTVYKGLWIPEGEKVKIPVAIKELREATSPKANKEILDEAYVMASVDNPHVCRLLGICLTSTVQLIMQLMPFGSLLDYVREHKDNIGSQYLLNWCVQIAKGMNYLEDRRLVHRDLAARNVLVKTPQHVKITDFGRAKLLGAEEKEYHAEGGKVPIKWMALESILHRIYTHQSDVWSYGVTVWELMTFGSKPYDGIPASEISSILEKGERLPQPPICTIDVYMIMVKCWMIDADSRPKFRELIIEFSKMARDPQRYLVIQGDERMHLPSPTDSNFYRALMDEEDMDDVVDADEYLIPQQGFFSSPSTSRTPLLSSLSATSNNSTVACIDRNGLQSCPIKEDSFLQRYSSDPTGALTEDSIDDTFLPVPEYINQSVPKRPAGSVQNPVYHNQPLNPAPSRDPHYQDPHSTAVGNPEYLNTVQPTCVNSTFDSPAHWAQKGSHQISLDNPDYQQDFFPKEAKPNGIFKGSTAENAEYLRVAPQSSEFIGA

For `CN1CCN(C2CCN(c3ccc(Nc4nc(Nc5cccc6c5N(S(C)(=O)=O)CC6)c5cc[nH]c5n4)cc3Cl)CC2)CC1` [Example 80, N^2-(3-chloro-4-(4-(4-methylpiperazin-1-yl)piperidin-1-yl)phenyl)-N^4-(1-(methylsulfonyl)indolin-7-yl)-7H-pyrrolo[2,3-d]pyrimidine-2,4-diamine], the IC50 [1] was 40.4 nM, the IC50 [2] was 0.7 nM and the IC50 [3] was 0.85 nM.

For `COc1cc(Nc2nc(Nc3cccc4c3N(S(C)(=O)=O)CC4)c3cc[nH]c3n2)ccc1N1CCC(N2CCN(C)CC2)CC1` [Example 81, N^2-(3-methoxy-4-(4-(4-methylpiperazin-1-yl)piperidin-1-yl)phenyl)-N^4-(1-(methylsulfonyl)indolin-7-yl)-7H-pyrrolo[2,3-d]pyrimidine-2,4-diamine], the IC50 [1] was 82.7 nM, the IC50 [2] was 0.44 nM and the IC50 [3] was 0.76 nM.

Compound `Cc1cc(Nc2nc(Nc3cccc4c3N(S(C)(=O)=O)CC4)c3cc[nH]c3n2)ccc1N1CCC(N2CCN(C)CC2)CC1` [Example 82, N^2-(3-methyl-4-(4-(4-methylpiperazin-1-yl)piperidin-1-yl)phenyl)-N^4-(1-(methylsulfonyl)indolin-7-yl)-7H-pyrrolo[2,3-d]pyrimidine-2,4-diamine] has an IC50 [1] of 39.7 nM, an IC50 [2] of 0.7 nM and an IC50 [3] of 0.85 nM.

Work on `COc1cc(C2CCN(CCN(C)C)CC2)c(C)cc1Nc1nc(Nc2cccc3c2N(S(C)(=O)=O)CC3)c2cc[nH]c2n1` [Example 109, N^2-(4-(1-(2-(dimethylamino)ethyl)piperidin-4-yl)-2-methoxy-5-methylphenyl)-N^4-(1-(methylsulfonyl)indolin-7-yl)-7H-pyrrolo[2,3-d]pyrimidine-2,4-diamine] yielded an IC50 [1] of 433 nM, an IC50 [2] of 3.1 nM and an IC50 [3] of 10 nM.

For `COc1cc(N2C[C@@H]3C[C@H]2CN3C)ccc1Nc1nc(Nc2cccc3c2N(S(C)(=O)=O)CC3)c2cc[nH]c2n1` [Example 110, N^2-(2-methoxy-4-((1S,4S)-5-methyl-2,5-diazabicyclo[2.2.1]heptan-2-yl)phenyl)-N^4-(1-(methylsulfonyl)indolin-7-yl)-7H-pyrrolo[2,3-d]pyrimidine-2,4-diamine], the IC50 [1] was 572 nM, the IC50 [2] was 5.1 nM and the IC50 [3] was 10.7 nM.

In the case of `COc1cc(N2[C@@H]3CC[C@H]2CN(C)C3)ccc1Nc1nc(Nc2cccc3c2N(S(C)(=O)=O)CC3)c2cc[nH]c2n1` [Example 111, N^2-(2-methoxy-4-((1R,5S)-3-methyl-3,8-diazabicyclo[3.2.1]octan-8-yl)phenyl)-N^4-(1-(methylsulfonyl)indolin-7-yl)-7H-pyrrolo[2,3-d]pyrimidine-2,4-diamine], the IC50 [1] is reported as 146 nM, the IC50 [2] is reported as 2.8 nM and the IC50 [3] is reported as 11.1 nM.

With `COc1cc(N(C)CCN(C)C)ccc1Nc1nc(Nc2cccc3c2N(S(C)(=O)=O)CC3)c2cc[nH]c2n1` [Example 112, N^2-(4-((2-(dimethylamino)ethyl)(methyl)amino)-2-methoxyphenyl)-N^4-(1-(methylsulfonyl)indolin-7-yl)-7H-pyrrolo[2,3-d]pyrimidine-2,4-diamine] the IC50 [1] was 840 nM, the IC50 [2] was 2.9 nM and the IC50 [3] was 14.6 nM.

For `COc1cc(-c2cnn(CCN(C)C)c2)ccc1Nc1nc(Nc2cccc3c2N(S(C)(=O)=O)CC3)c2cc[nH]c2n1` [Example 113, N^2-(4-(1-(2-(dimethylamino)ethyl)-1H-pyrazol-4-yl)-2-methoxyphenyl)-N^4-(1-(methylsulfonyl)indolin-7-yl)-7H-pyrrolo[2,3-d]pyrimidine-2,4-diamine], the IC50 [1] was 1470 nM, the IC50 [2] was 16 nM and the IC50 [3] was 18.5 nM.

For `COc1cc(-c2cnn(CCN3CCN(C)CC3)c2)ccc1Nc1nc(Nc2cccc3c2N(S(C)(=O)=O)CC3)c2cc[nH]c2n1` [Example 115, N^2-(2-methoxy-4-(1-(2-(4-methylpiperazin-1-yl)ethyl)-1H-pyrazol-4-yl)phenyl)-N^4-(1-(methylsulfonyl)indolin-7-yl)-7H-pyrrolo[2,3-d]pyrimidine-2,4-diamine], the IC50 [1] was 2490 nM, the IC50 [2] was 20.7 nM and the IC50 [3] was 42.8 nM.

Work on `COc1cc(N2CCC(N3CCN(C)CC3)CC2)ccc1Nc1ncc(Br)c(Nc2cccc3c2N(S(C)(=O)=O)C(C)(C)C3)n1` [Example 134, 5-bromo-N4-(2,2-dimethyl-1-(methylsulfonyl)indolin-7-yl)-N2-(2-methoxy-4-(4-(4-methylpiperazin-1-yl)piperidin-1-yl)phenyl)pyrimidine-2,4-diamine] yielded an IC50 [1] of 11.5 nM, an IC50 [2] of 0.3 nM and an IC50 [3] of 0.8 nM.

Compound `COc1cc(N2CCC(N3CCN(C)CC3)CC2)ccc1Nc1ncc(Br)c(Nc2cccc3c2N(S(C)(=O)=O)C2(CC2)C3)n1` [Example 136, 5-bromo-N2-(2-methoxy-4-(4-(4-methylpiperazin-1-yl)piperidin-1-yl)phenyl)-N4-(1′-(methylsulfonyl)spiro[cyclopropane-1,2′-indolin]-7′-yl)pyrimidine-2,4-diamine] has an IC50 [1] of 1.4 nM, an IC50 [2] of 0.3 nM and an IC50 [3] of 0.9 nM.

Work on `COc1cc(Nc2nc(Nc3cccc4c3N(S(C)(=O)=O)CC4)c3cc[nH]c3n2)cc(F)c1N1CCC(N2CCN(C)CC2)CC1` [Example 148, N2-(3-fluoro-5-methoxy-4-(4-(4-methylpiperazin-1-yl)piperidin-1-yl)phenyl)-N4-(1-(methylsulfonyl)indolin-7-yl)-7H-pyrrolo[2,3-d]pyrimidine-2,4-diamine] yielded an IC50 [1] of 1390 nM, an IC50 [2] of 9.9 nM and an IC50 [3] of 6.5 nM.

With `COc1cc(Nc2nc(Nc3cccc4c3N(S(C)(=O)=O)CC4)c3cc[nH]c3n2)c(F)cc1N1CCC(N2CCN(C)CC2)CC1` [Example 149, N2-(2-fluoro-5-methoxy-4-(4-(4-methylpiperazin-1-yl)piperidin-1-yl)phenyl)-N4-(1-(methylsulfonyl)indolin-7-yl)-7H-pyrrolo[2,3-d]pyrimidine-2,4-diamine] the IC50 [1] was 22.1 nM, the IC50 [2] was 0.4 nM and the IC50 [3] was 0.4 nM.

`CN1CCN(C2CCN(c3ccc(Nc4nc(Nc5cccc6c5N(S(C)(=O)=O)CC6)c5cc[nH]c5n4)nc3)CC2)CC1` [Example 154, N2-(5-(4-(4-methylpiperazin-1-yl)piperidin-1-yl)pyridin-2-yl)-N4-(1-(methylsulfonyl)indolin-7-yl)-7H-pyrrolo[2,3-d]pyrimidine-2,4-diamine] showed an IC50 [1] of 303 nM, an IC50 [2] of 2.7 nM and an IC50 [3] of 2.2 nM.

`COc1cc(N2CCC(N3CCN(C)CC3)CC2)c(C)cc1Nc1ncc(Br)c(Nc2cccc3c2N(S(C)(=O)=O)CC32CC2)n1` [Example 181, 5-bromo-N2-(2-methoxy-5-methyl-4-(4-(4-methylpiperazin-1-yl)piperidin-1-yl)phenyl)-N4-(1′-(methylsulfonyl)spiro[cyclopropane-1,3′-indolin]-7′-yl)pyrimidine-2,4-diamine] showed an IC50 [1] of 0.9 nM, an IC50 [2] of 0.3 nM and an IC50 [3] of 0.6 nM.

Work on `CN1CCN(C2CCN(c3ccc(Nc4nc(Nc5cccc6c5N(S(C)(=O)=O)CC6)c5cc[nH]c5n4)c4c3OCO4)CC2)CC1` [Example 182, N2-(7-(4-(4-methylpiperazin-1-yl)piperidin-1-yl)benzo[d][1,3]dioxol-4-yl)-N4-(1-(methylsulfonyl)indolin-7-yl)-7H-pyrrolo[2,3-d]pyrimidine-2,4-diamine] yielded an IC50 [1] of 230 nM, an IC50 [2] of 1.2 nM and an IC50 [3] of 1.5 nM.

Work on `CN1CCN(C2CCN(c3ccc(Nc4nc(Nc5cccc6c5N(S(C)(=O)=O)CC6)c5cc[nH]c5n4)cn3)CC2)CC1` [Example 184, N2-(6-(4-(4-methylpiperazin-1-yl)piperidin-1-yl)pyridin-3-yl)-N4-(1-(methylsulfonyl)indolin-7-yl)-7H-pyrrolo[2,3-d]pyrimidine-2,4-diamine] yielded an IC50 [1] of 427 nM, an IC50 [2] of 1.7 nM and an IC50 [3] of 2.5 nM.

`CCN1CCN(C2CCN(c3cc(F)c(Nc4ncc(Br)c(Nc5cccc6c5N(S(C)(=O)=O)CC6)n4)cc3F)CC2)CC1` [Example 185, 5-bromo-N2-(4-(4-(4-ethylpiperazin-1-yl)piperidin-1-yl)-2,5-difluorophenyl)-N4-(1-(methylsulfonyl)indolin-7-yl)pyrimidine-2,4-diamine] was tested, and the IC50 [1] was 1.5 nM, the IC50 [2] was 0.3 nM and the IC50 [3] was 0.3 nM.

`COc1cc(N2CCC(N3CCN(C)C(=O)C3)CC2)ccc1Nc1nc(Nc2cccc3c2N(S(C)(=O)=O)CC3)c2cc[nH]c2n1` [Example 186, 4-(1-(3-methoxy-4-((4-((1-(methylsulfonyl)indolin-7-yl)amino)-7H-pyrrolo[2,3-d]pyrimidin-2-yl)amino)phenyl)piperidin-4-yl)-1-methylpiperazin-2-one] gave an IC50 [1] of 140 nM, an IC50 [2] of 1.5 nM and an IC50 [3] of 4.9 nM.
